Assay: Pharmacokinetics after oral administration of the monophosphate prodrug to rats (blood and plasma)
Assay type: in vivo
Description: A sodium salt of the monophosphate prodrug compound (Formula (V-B)) was administered orally to rats in a dose of 10 mg/kg (5 mL/kg). The vehicle administered was dimethylacetamide:PEG400:30% HβCD (5:25:70). The pharmacokinetic results are tabulated below and graphically illustrated in FIG. 1.

Row | Compound | whole blood Cmax following administration of the compound of formula (III), compared with Cmax after the monophosphate prodrug (compound of formula (III) administered at the same dose) | conversion of the prodrug to compound of formula (III) (oral, 10 mg/kg, rats)
1 | CC(C)n1nccc1-c1ncccc1COc1cccc(O)c1C=O [Formula (III), 2-hydroxy-6-([2-[1-(propan-2-yl)-1H-pyrazol-5-yl]pyridin-3-yl]methoxy)benzaldehyde] | equivalent | 
2 | CC(C)n1nccc1-c1ncccc1COc1cccc(OP(=O)(O)O)c1C=O [Formula (V-B), 2-formyl-3-((2-(1-isopropyl-1H-pyraol-5-yl)pyridin-3-yl)methoxy)phenyl dihydrogen phosphate] |  | efficiently con veiled to compound of formula (III)
